Earlier results in patent US20220387454A1, “NUTRITIONAL COMPOSITION FOR VISUAL FUNCTION” (OMNIACTIVE HEALTH TECHNOLOGIES LIMITED, priority 2019, published 2022).

Tested on: patients with dry eye syndrome (DES) refractory to conventional treatment with vitamin D deficiency
Details: intramuscular 200,000 IU, p<0.05

SMILES: C=C1CC[C@H](O)C/C1=C/C=C1\CCC[C@]2(C)[C@@H]([C@H](C)CCCC(C)C)CC[C@@H]12 [cholecalciferol]
- Eyelid margin hyperemia (2, 6, and 10 weeks): showed improvement
- Severity of symptoms (2, 6, and 10 weeks): showed improvement
- Tear break-up time (TBUT) (2 and 6 weeks vs pre-treatment): showed an improvement
- Tear secretion test (2 and 6 weeks vs pre-treatment): showed an improvement
- Fluorescein staining score (FSS) (2 weeks vs pre-treatment): decreased
- Ocular surface disease index (OSDI) (2 weeks vs pre-treatment): decreased
- Visual analogue pain score (VAS) (2 weeks vs pre-treatment): decreased
